# Test results from publication PMC8678482, “Suppression of the Lycopene Cyclase Gene Causes Downregulation of Ascorbate Peroxidase Activity and Decreased Glutathione Pool Size, Leading to H2O2 Accumulation in Euglena gracilis” (Frontiers in Plant Science, 2021).
# Target: T1, EgLCY (Euglena gracilis, UniProt A0A7I8I611)
# T1 construct: gene lcy; full-length open reading frame in pETDuet-1 (pET-EgLCY, NcoI In-Fusion), expressed in lycopene-accumulating E. coli BL21(DE3) carrying pACCRT-EIB
# T1 sequence (A0A7I8I611 1-652): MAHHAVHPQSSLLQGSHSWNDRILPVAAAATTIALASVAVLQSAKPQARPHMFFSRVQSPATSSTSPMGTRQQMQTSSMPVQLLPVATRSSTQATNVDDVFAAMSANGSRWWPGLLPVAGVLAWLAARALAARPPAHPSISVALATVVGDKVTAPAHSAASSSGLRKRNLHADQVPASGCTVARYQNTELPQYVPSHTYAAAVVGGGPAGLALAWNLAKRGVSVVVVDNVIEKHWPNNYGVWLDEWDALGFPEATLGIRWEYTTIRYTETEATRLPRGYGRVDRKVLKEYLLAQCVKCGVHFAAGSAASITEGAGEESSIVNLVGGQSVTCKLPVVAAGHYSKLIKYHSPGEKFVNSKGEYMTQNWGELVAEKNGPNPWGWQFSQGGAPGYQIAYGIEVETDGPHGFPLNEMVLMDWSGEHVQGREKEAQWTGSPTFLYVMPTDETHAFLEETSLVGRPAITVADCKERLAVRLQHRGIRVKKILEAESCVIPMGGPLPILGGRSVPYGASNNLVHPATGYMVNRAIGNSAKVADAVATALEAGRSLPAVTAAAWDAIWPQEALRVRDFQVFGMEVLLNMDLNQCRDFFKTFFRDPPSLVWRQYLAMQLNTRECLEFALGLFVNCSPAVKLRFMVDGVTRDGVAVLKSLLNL
# Experiment: in vivo conversion in lycopene-accumulating E. coli, HPLC of carotenoid extracts
# Format: cell-based
# Conditions: co-expression with Pantoea ananatis crtE, crtB, crtI; 48 h at 21°C after IPTG
compound,measurement,value
CC(C)=CCC/C(C)=C/C=C/C(C)=C/C=C/C(C)=C/C=C/C=C(C)/C=C/C=C(C)/C=C/C=C(\C)CCC=C(C)C [lycopene],"in vivo conversion in lycopene-accumulating E. coli, HPLC of carotenoid extracts",This indicates that EgLCY is a lycopene β-cyclase that converts lycopene to β-carotene.
CC1=C(/C=C/C(C)=C/C=C/C(C)=C/C=C/C=C(C)/C=C/C=C(C)/C=C/C2=C(C)CCCC2(C)C)C(C)(C)CCC1 [β-carotene],"in vivo conversion in lycopene-accumulating E. coli, HPLC of carotenoid extracts",accumulated β-carotene as the main carotenoid when the EgLCY gene was co-expressed
